# Experiments:
# [1] = target: T1, L1196M EML4-ALK (NIH-3T3 EML4-ALK v1 L1196M cells) (Homo sapiens, UniProt Q9UM73, L1196M); experiment: Cellular phospho-ALK (Tyr1604) ELISA assay for L1196M EML4-ALK; format: cell-based; conditions: NIH-3T3 EML4-ALK v1 L1196M cells, 1 hour, phospho-ALK (Tyr1604); read-out: ELISA assay for L1196M EML4-ALK (IC50)
# T1 construct: expressed in transfected cells; the other entry of the earlier key: EML4 (Q9HC35, Echinoderm microtubule-associated protein-like 4)
# [2] = target: T2, human recombinant wild-type ALK kinase domain (amino acids 1093-1411) (Homo sapiens, UniProt Q9UM73); experiment: Wild-type ALK enzyme assay (microfluidic mobility shift); format: biochemical; conditions: ATP 60 μM, competitive inhibition fit, read-out: WT ALK enzyme assay (Ki)
# T2 construct: ALK kinase domain (amino acids 1093-1411); made in house
# Procedure: The reactions were incubated for 1 h at room temperature, stopped by the addition of 0.1 M EDTA, pH 8, and the extent of reactions (˜15-20% conversion with no inhibitor) was determined after electrophoretic separation of the fluorescently labeled peptide substrate and phosphorylated product on an LabChip EZ Reader II (Caliper Life Sciences, Hopkinton, Mass.).
# [3] = target: T3, WT EML4-ALK (NIH-3T3 EML4-ALK wt v1 cells) (Homo sapiens, UniProt Q9UM73); experiment: Cellular phospho-ALK (Tyr1604) ELISA assay for WT EML4-ALK; format: cell-based; conditions: 1 hour, read-out: ELISA assay for WT EML4-ALK (IC50)
# T3 construct: expressed in transfected cells; the other entry of the earlier key: EML4 (Q9HC35, Echinoderm microtubule-associated protein-like 4)
# Procedure: Cellular Phospho-ALK (Tyr1604) ELISA Assay for EML4-ALK:
# The cells were maintained at 37° C. in a 5% CO2 incubator in DMEM (Invitrogen, Carlsbad, Calif.) medium supplemented with 1% L-glutamine, 1% penicillin and streptomycin, 1 ug/ml puromycin and 10% new born calf serum (NCS) in T-75 flasks.
# Cells were washed with PBS and re-suspended in DMEM medium supplemented with 0.5% NCS and 1% pen/strep and seeded into 96-well plates at density of 20,000 cells/well/100 μl and incubated in the incubator at 37° C. and 5% CO2. After 20 hours of incubation, 100 μl of assay media (DMEM) in presence of designated PF-compounds concentrations or controls (DMSO) were added into plates and incubated for 1 hour in the incubator. Media was then removed and lysis buffer, containing phosphatase inhibitors and phenylmethanesulfonyl fluoride (PMSF), was added to wells and shaken at 4° C. for 30 minutes to generate protein lysates.
# A phospho-ALK (Tyr1604) rabbit antibody was coated onto the 96-well microplates. 50 μl of cell lysates were added to the antibody coated plate and incubated at room temperature for 2 hours. Following extensive washing with 0.1% Tween 20 in PBS to remove unbound materials, ALK mouse mAb was added to detect captured phospho-ALK (Tyr1604) and phospho-ALK fusion proteins. Anti-mouse IgG, HRP-linked antibody was then used to recognize the bound detection antibody. Finally, the chemiluminescent reagent was added and incubated for 10 minutes for signal development. The assay plates were read in the Envision plate reader in the luminescent mode. IC50 values were calculated by a concentration-response curve fitting using a four-parameter analytic method.
# [4] = target: T4, human recombinant L1196M ALK kinase domain (amino acids 1093-1411) (Homo sapiens, UniProt Q9UM73, L1196M); experiment: L1196M mutant ALK enzyme assay (microfluidic mobility shift); format: biochemical; conditions: ATP 60 μM, 0.5 nM enzyme, competitive inhibition fit; read-out: L1196M ALK enzyme assay (Ki)
# T4 construct: ALK kinase domain (amino acids 1093-1411); made in house
Compound,IC50 [1] [nM],Ki [2] [nM],IC50 [3] [nM],Ki [4] [nM]
"CN1Cc2nn(C)c(C#N)c2-c2cnc(N)c(c2)OC(CF)c2cc(F)ccc2C1=O (single isomer, unassigned) [Example 85, 7-amino-12-fluoro-10-(fluoromethyl)-2,16-dimethyl-15-oxo-10,15,16,17-tetrahydro-2H-8,4-(metheno)pyrazolo[4,3-h][2,5,11]benzoxadiazacyclotetradecine-3-carbonitrile]",6.72,0.07,0.55,0.13
"CCn1ncc2c1-c1cnc(N)c(n1)O[C@H](C)c1cc(F)ccc1C(=O)N(C)C2 [Example 49, (10R)-7-amino-3-ethyl-12-fluoro-10,16-dimethyl-16,17-dihydro-3H-8,4-(azeno)pyrazolo[3,4-h][2,5,11]benzoxadiazacyclotetradecin-15(10H)-one]",80.8,0.17,4.08,1.5
"CCn1nnc2c1-c1cnc(N)c(c1)O[C@H](C)c1cc(F)ccc1C(=O)N(C)C2 [Example 133, (10R)-7-amino-3-ethyl-12-fluoro-10,16-dimethyl-16,17-dihydro-3H-4,8-(metheno)[1,2,3]triazolo[4,5-h][2,5,11]benzoxadiazacyclotetradecin-15(10H)-one]",997,3.06,95.8,32.8
CC1Oc2cc(cnc2N)-c2c(nn(C)c2C#N)COCc2ccc(F)cc21 (stereo not shown) [Example 119],264,1.6,7.79,13.4
"Cn1nc2c(c1C#N)-c1cnc(N)c(c1)OCc1cc(F)ccc1COC2 [Example 118, 7-amino-12-fluoro-2-methyl-2,10,15,17-tetrahydro-8,4-(metheno)pyrazolo-[4,3-h][2,11,5]benzodioxazacyclotetradecine-3-carbonitrile]",1400,17.8,217,64.7
"CC1Oc2cc(F)ccc2C(=O)N(C)Cc2nn(C)c(C#N)c2-c2cnc(N)c1c2 (single isomer, unassigned) [Example 77, 7-amino-12-fluoro-2,9,16-trimethyl-15-oxo-2,15,16,17-tetrahydro-9H-8,4-(metheno)pyrazolo[4,3-h][1,5,11]benzoxadiazacyclotetradecine-3-carbonitrile]",3320,75,3390,45.8
"CC1c2nn(C)c(C#N)c2-c2cnc(N)c(n2)OCc2cc(F)ccc2C(=O)N1C (single isomer, unassigned) [Example 79, 7-amino-12-fluoro-2,16,17-trimethyl-15-oxo-10,15,16,17-tetrahydro-2H-8,4-(azeno)pyrazolo[4,3-h][2,5,11]benzoxadiazacyclotetradecine-3-carbonitrile]",180,1.18,42.8,2.9
"Cc1nn(C)c2c1-c1cnc(N)c(c1)OC(C)c1cc(F)ccc1C(=O)N(C1CC1)C2 (single isomer, unassigned) [Example 12, 7-amino-16-cyclopropyl-12-fluoro-1,3,10-trimethyl-16,17-dihydro-1H-8,4-(metheno)pyrazolo[4,3-h][2,5,11]benzoxadiazacyclotetradecin-15(10H)-one]",700,10,34.9,29
"COc1nccc2c1-c1cnc(N)c(c1)O[C@H](C)c1cc(F)ccc1C(=O)N(C)C2 [Example 34, (11R)-8-amino-13-fluoro-4-methoxy-11,17-dimethyl-17,18-dihydro-9,5-(metheno)pyrido[3,4-h][2,5,11]benzoxadiazacyclotetradecin-16(11H)-one]",890,0.56,36.1,15
"C[C@H]1Oc2cc(cnc2N)-c2c(nnn2C2CCC2)CN(C)C(=O)c2ccc(F)cc21 [Example 136, (10R)-7-amino-3-cyclobutyl-12-fluoro-10,16-dimethyl-16,17-dihydro-3H-8,4-(metheno)[1,2,3]triazolo[4,5-h][2,5,11]benzoxadiazacyclotetradecin-15(10H)-one]",419,0.6,28.5,4.8
"CN1Cc2nn(C)c(C#N)c2-c2cnc(N)c(c2)OCc2cc(F)ccc2C1=O [Example 4, 7-amino-12-fluoro-2,16-dimethyl-15-oxo-10,15,16,17-tetrahydro-2H-8,4-(metheno)pyrazolo[4,3-h][2,5,11]benzoxadiazacyclotetradecine-3-carbonitrile]",184,< 0.2,28.1,1.2
"CC1Oc2nc(cnc2N)-c2c(nn(C)c2C#N)Cn2ccnc2-c2ccc(F)cc21 (single isomer, unassigned) [Example 108, 8-amino-3-fluoro-5,13-dimethyl-13,15-dihydro-5H-7,11-(azeno)imidazo[1,2-k]pyrazolo[4,3-h][2,5,11]benzoxadiazacyclotetradecine-12-carbonitrile]",0.5,< 0.06,0.068,< 0.05
"CCn1ncc2c1-c1cnc(N)c(c1)O[C@H](C)c1cc(F)ccc1C(=O)N(C)C2 [Example 27, (10R)-7-amino-3-ethyl-12-fluoro-10,16-dimethyl-16,17-dihydro-3H-8,4-(metheno)pyrazolo[3,4-h][2,5,11]benzoxadiazacyclotetradecin-15(10H)-one]",157,0.38,9.15,5.3
"CC1Cc2cc(cnc2N)-c2c(nn(C)c2C(N)=O)CN(C)C(=O)c2ccc(F)cc21 (stereo not shown) [Example 62, 7-amino-12-fluoro-2,10,16-trimethyl-15-oxo-2,9,10,15,16,17-hexahydro-8,4-(metheno)pyrazolo[3,4-d][2,8]benzodiazacyclotetradecine-3-carboxamide]",> 10000,137,7610,253
"12-fluoro-1,14-dimethyl-1,4,5,6,7,8-hexahydro-14H-16,20-(metheno)-pyrazolo[4,3-g][1,14,11]benzodioxazacycloheptadecin-17-amine [Example 95]",169,0.35,10.4,1.9
"7-amino-12-fluoro-3-methoxy-1,16,17-trimethyl-16,17-dihydro-1H-8,4-(azeno)pyrazolo[4,3-h][2,5,11]benzoxadiazacyclotetradecin-15(10H)-one [Example 124]",873,2.1,56.2,7.4
"COc1snc2c1-c1cnc(N)c(c1)O[C@H](C)c1cc(F)ccc1C(=O)N(C)C2 [Example 3, (10R)-7-amino-12-fluoro-3-methoxy-10,16-dimethyl-16,17-dihydro-8,4-(metheno)isothiazolo[4,3-h][2,5,11]benzoxadiazacyclotetradecin-15(10H)-one]",22.2,< 0.2,0.99,0.2
"C[C@H]1Oc2cc(cnc2N)-c2c(C#N)noc2CN(C)C(=O)c2ccc(F)cc21 [Example 117, (10R)-7-amino-12-fluoro-10,16-dimethyl-15-oxo-10,15,16,17-tetrahydro-8,4-(metheno)[1,2]oxazolo[4,5-h][2,5,11]benzoxadiazacyclotetradecine-3-carbonitrile]",393,2.18,35.2,17.8
"C[C@H]1Oc2nc(cnc2N)-c2c(C#N)nn(C)c2CN(C)C(=O)c2ccc(F)cc21 [Example 115, (10R)-7-amino-12-fluoro-1,10,16-trimethyl-15-oxo-10,15,16,17-tetrahydro-1H-8,4-(azeno)pyrazolo[4,3-h][2,5,11]benzoxadiazacyclotetradecine-3-carbonitrile]",8.18,< 0.08,0.96,0.09
"C[C@H]1Oc2cc(cnc2N)-c2c(nnn2CC2CCC2)CN(C)C(=O)c2ccc(F)cc21 [Example 135, (10R)-7-amino-3-(cyclobutylmethyl)-12-fluoro-10,16-dimethyl-16,17-dihydro-3H-8,4-(metheno)[1,2,3]triazolo[4,5-h][2,5,11]benzoxadiazacyclotetradecin-15(10H)-one]",814,2.1,45.9,12.6
"CC1Oc2cc(cnc2N)-c2ccccc2CN(C)C(=O)c2ccc(F)cc21 (stereo not shown) [Example 8, 8-amino-3-fluoro-5,17-dimethyl-16,17-dihydro-7,11-(metheno)dibenzo[g,l]-[1,4,10]-oxadiazacyclotetradecin-18(5H)-one]",680,0.9,12.1,10
"C[C@H]1Oc2cc(cnc2N)-c2cc(S(C)(=O)=O)ccc2CN(C)Cc2ccc(F)cc21 [Example 35, (5R)-3-fluoro-5,17-dimethyl-13-(methylsulfonyl)-5,16,17,18-tetrahydro-7,11-(metheno)dibenzo[g,l][1,4,10]oxadiazacyclotetradecin-8-amine]",14.3,< 0.261,0.98,1.1

# — patent US8680111B2 (Pfizer Inc., priority 2012, dated 2014)
